Data: US9580426B2, “Compounds that expand hematopoietic stem cells” (Novartis AG, priority 2008, dated 2017)

Tests used:
mPB CD34+ HSCs = assay: Cobblestone area-forming cell (CAFC) assay; type: cell-based, human; conditions: 1 micromolar; mPB CD34+ HSCs after 5 days of culture
Protocol: Cobblestone area-forming cell (CAFC) assays: The FBMD-1 stromal cells are maintained in 25-cm^2 flasks and are trypsinized after ⅓ confluence. Since this non-transformed line ages, and therefore gradually loses its potential to support CAFC growth at late stages, all feeders are used below passage 20. For supporting CAFC growth in 96-well plates, 1×10^3 stromal cells are seeded per well. The cultures are maintained in Iscove's medium supplemented with 10% fetal calf serum (FCS), 2.5% horse serum (HS), 1% L-glutamine, 1% penicillin-streptomycin, and 1×10^−5 M hydrocortisone at 37° C. in a humidified atmosphere of 5% CO2 in air. After stromal layers reach confluency, they are inoculated with CD34^+ HSCs that have been cultured for 5 days with vehicle or a compound of the invention. MNCs are added at 8 serial 1:3 dilutions (starting at 25,000 cells/well), with 10 wells for each cell dose. The dilutions with wells with at least one phase-dark hematopoietic clone (cobblestone area) of at least five cells beneath the stromal layer are determined at week 4. […]

[1] = tested on: Primary adult CD34+ human hematopoietic stem cells (HSCs); assay: % CD34+ assay: HSC expansion screen, dose response; type: cell-based; conditions: Homo sapiens, Hematopoietic stem cell; dose response 1 nM to 10 μM; total number and/or percent of CD34+ cells
Procedure, shortened: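 Human CD34+ cells, chiefly MACS-enriched from G-CSF-mobilized peripheral blood, were grown at 37° C., 5% CO2 in serum-free StemSpan with TPO, IL-6, Flt-3 ligand and SCF (50 ng/mL each), plus compound or DMSO. Cultures were kept at 10^4–5×10^5 cells/mL and assessed by flow cytometry for CD34 expression. EC50 came from a 1 nM–10 μM dose response.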

mPB and CB derived HSCs = assay: Transplantation of cultured human CD34+ cells into NOD/SCID mice (engraftment); type: in vivo, human cells in NOD/SCID mice; conditions: HSCs cultured at 1 micromolar, mPB 4 days, CB 21 days
Protocol: Transplantation of human CD34^+ cells into NOD.CB 17-Prkdc^scid mice (NOD/SCID): To assess the in vivo repopulating capacity of CD34^+ cells and their cultured progeny, uncultured CD34^+ or the progenies of cultured CD34^+ cells after 4 days (mPB) or 21 days (CB) with vehicle or a test compound were injected intravenously via the retro-orbital route into sub-lethally irradiated (3.0 Gy) 8- to 10-week-old NOD/SCID (for mPB HSC experiments) or NOD/SCIDgc−/− (for CB HSC experiments) mice. To monitor engraftment blood was drawn weekly via the retro-orbital and treated with erythrocyte lysis solution (Qiagen, Valencia, Calif.) to remove red blood cells, washed with staining media, and analyzed by flow Cytometry. Engraftment was measured by detection of anti-human CD45^+ cells in the blood. The mice are sacrificed at 10 weeks post-transplantation; BM is collected from both femurs and tibiae. BM cells are washed in staining media and stained with anti-human antibodies. Following incubation, the suspension is treated with erythrocyte lysis solution (Qiagen, Valencia, Calif.) to remove red blood cells, washed with staining media, and analyzed by flow Cytometry, as described earlier.

EC50 [1]: 120 nM
SMILES: CC(C)n1cnc2c(NCCc3ccc(O)cc3)nc(-c3csc4ccccc34)nc21 [Example 1, 4-(2-(2-(benzo[b]thiophen-3-yl)-9-isopropyl-9H-purin-6-ylamino)ethyl)phenol]
increase in the number of cobblestone area forming cells compared with DMSO control (mPB CD34+ HSCs): greater than 2 fold
percentage of human cells 10 weeks after engraftment (mPB and CB derived HSCs): statistically significant increase
